Assay results taken from patent US10745355B2, “Anti-cancer compounds” (THE UNIVERSITY OF SYDNEY, priority 2015, dated 2020).

Key:
U87vIII = assay: Alamar blue cell viability assay, U87vIII cells; type: cell-based; conditions: 72 hours of treatment; mean±SEM, three independent experiments
Procedure: (§1) U87 and U251 cell lines were obtained from the European Collection of Cell Cultures (ECACC) through CellBank Australia. U87-EGFRvIII cell line was obtained from their lab of origin (Nishikawa et al., 1994, Proc Natl Acad Sci USA 91: 7727-7731) and tested for EGFR amplification and mutation by immunoblotting and flow cytometry. Cells were cultured in DMEM medium (Invitrogen by Life Technologies, Carlsbad, Calif., USA) supplemented with 10% FBS (Sigma-Aldrich) at 37° C. and 5% CO2. Primary gliomaspheres (RN1, classical; WK1, mesenchymal) were derived from glioblastoma specimens (Day et al., 2013, Cancers 5: 357-371; Day et al., 2013, Cancer Cell 23: 238-248), maintained in StemPro NSC serum-free media supplemented with EGF and FGF (all Life Technologies), and grown on matrigel-coated flasks (Pollard et al., 2009, Cell Stem Cell 4: 568-580).
Cell viability was determined using Alamar blue assay after 72 hours of treatment (Table 2). EC50 values were calculated using non-linear regression on Graph Pad Prism version 5. c Log P values calculated using ChemBioDraw Software. Results are mean±SEM from three independent experiments performed in triplicates.

MERTK = target: T1, MERTK (Homo sapiens, UniProt Q12866); assay: Kinase profiling (ProQinase 33PanQinase Activity Assay), MERTK (table: MERK); type: biochemical
T1 sequence (Q12866 21-999): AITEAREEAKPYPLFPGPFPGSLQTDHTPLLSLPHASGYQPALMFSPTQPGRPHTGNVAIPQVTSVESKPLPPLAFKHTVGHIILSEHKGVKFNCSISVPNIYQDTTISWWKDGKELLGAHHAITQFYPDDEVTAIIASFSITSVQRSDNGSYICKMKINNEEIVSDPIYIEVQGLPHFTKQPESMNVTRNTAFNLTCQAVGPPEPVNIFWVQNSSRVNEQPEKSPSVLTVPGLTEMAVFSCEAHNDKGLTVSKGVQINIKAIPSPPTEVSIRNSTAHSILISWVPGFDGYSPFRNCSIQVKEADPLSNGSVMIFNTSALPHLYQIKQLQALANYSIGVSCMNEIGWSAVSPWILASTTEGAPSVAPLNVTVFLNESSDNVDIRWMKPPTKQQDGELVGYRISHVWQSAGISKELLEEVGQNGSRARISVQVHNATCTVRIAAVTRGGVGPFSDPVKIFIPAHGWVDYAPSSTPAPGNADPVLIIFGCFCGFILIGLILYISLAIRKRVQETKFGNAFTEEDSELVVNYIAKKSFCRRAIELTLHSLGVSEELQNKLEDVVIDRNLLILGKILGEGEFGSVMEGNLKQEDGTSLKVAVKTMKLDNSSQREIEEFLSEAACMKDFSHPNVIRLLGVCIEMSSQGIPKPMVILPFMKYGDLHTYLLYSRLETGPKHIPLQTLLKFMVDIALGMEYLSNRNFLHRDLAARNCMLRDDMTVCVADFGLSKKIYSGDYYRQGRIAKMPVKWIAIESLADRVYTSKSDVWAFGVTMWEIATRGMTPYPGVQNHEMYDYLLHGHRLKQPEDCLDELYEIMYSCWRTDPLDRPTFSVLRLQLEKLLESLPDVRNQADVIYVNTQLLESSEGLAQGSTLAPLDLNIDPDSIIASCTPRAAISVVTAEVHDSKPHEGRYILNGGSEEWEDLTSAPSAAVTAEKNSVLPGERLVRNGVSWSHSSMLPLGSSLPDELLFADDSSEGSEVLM
Procedure: The kinase profiling of compound 1-08 at 10 and 50 μM was performed by ProQinase GmbH (Freiburg, Germany). A radiometric protein kinase assay (^33PanQinase® Activity Assay) and the non-radiometric ADP-Glo™ Assay (Promega, Madison, Wis., USA) were used for measuring kinase activity of 387 protein kinases and 13 lipid kinases, respectively. The results are shown in Table 3 (only the top 10 kinases are listed, and the selectivity score describes the portion of kinases inhibited more than 50% in relation to all tested kinases).
At 10 μM, compound 1-08 inhibited MERTK at the 51% level. Several other kinases were inhibited at 50 μM concentration.

[1] = tested on: RN1 gliomaspheres (classical); assay: AlamarBlue cell viability assay, RN1 gliomaspheres; type: cell-based; conditions: 72 h of drug treatment, FIG. 11A
Procedure: (§2) FIGS. 11A-11B. Efficacy of SC-38 (referred to as “CMPD1”), compound 1-08 (referred to as “cmpd 13”), compound 1-18 (referred to as “cmpd 7”), and compound 1-38 (referred to as “cmpd 10”) in primary gliomaspheres representing two glioblastoma subtypes. (11A) RN1, classical, and (11B) WK1, mesenchymal. Cellular efficacy (EC50) of test compounds was determined using AlamarBlue cell viability assay after 72 h of drug treatment. Data are mean±SEM from 3 independent experiments performed in triplicate.
as §1, with “568-580). […]” for “568-580).”

[2] = tested on: WK1 gliomaspheres (mesenchymal); assay: AlamarBlue cell viability assay, WK1 gliomaspheres; type: cell-based; conditions: 72 h of drug treatment, FIG. 11B
Procedure: as §2, §1
The effect of SC-38, and compounds 1-08, 1-18 and 1-38 in a cell viability assay employing patient-derived gliomaspheres was also investigated. RN1 gliomaspheres representing glioblastoma of the classical subtype were most responsive to the treatment (FIG. 11, where SC-38 is referred to as “CMPD1”, compound 1-08 is referred to as “compound 13”, compound 1-18 is referred to as “compound 7”, and compound 1-38 is referred to as “compound 10”).

U87 = assay: Annexin-FITC/7-AAD apoptosis assay, U87 cells; type: cell-based; conditions: 48 hours treatment
Procedure: FIGS. 4A-4D. […] U87 (4A-4B) and U87vIII (4C-4D) cells were treated with SC-38 for 48 hours and stained with Annexin-FITC/7-AAD. Apoptotic cells were visualized using the MUSE cell analyzer (Millipore).
FIGS. 6A-6D. […] U87 (A B) (6A-6B) and U87vIII (6C-6D) cells were treated with compound 1-08 for 48 hours and stained with Annexin-FITC/7-AAD. Apoptotic cells were visualized using the MUSE cell analyzer (Millipore). Results are means±SEM from 3 independent experiments. One-way ANOVA followed by Dunnet post-test was used to calculate statistical significance (***P<0.001).
(§3) U87 (FIGS. 4, A-B) and U87vIII (FIG. 4, C-D) cells were treated with SC-38 for 48 hours and stained with Annexin-FITC/7-AAD. Apoptotic cells were visualized using the MUSE cell analyzer (Millipore). Results are means±SEM from 3 independent experiments. One-way ANOVA followed by Dunnet post-test was used to calculate statistical significance (**P<0.01, ***P<0.001)
as §3, with “6,” for “4,”, “compound 1-08” for “SC-38”, “three” for “3”, “(***P<0.001).” for “(**P<0.01, ***P<0.001)”

EC50 (U87vIII): 1.3 ± 0.4 µM | inhibition at 10 µM (MERTK; 10 μM compound): 51% | remaining activity at 10 µM (MERTK; 10 μM compound, read-out: residual activity, MERK): 49% | remaining activity at 50 µM (MERTK; 50 μM compound, read-out: residual activity, MERK): 12%
Compound: O=C(CCCc1ccc(-c2cnc3ccccc3c2)cc1)Nc1ccc(O)cc1 [Compound 1-08, N-(4-hydroxyphenyl)-4-(4-(quinolin-3-yl)phenyl)butanamide]
EC50 [1]: 0.54 µM | EC50 [2]: 3.82 µM | apoptosis, U87 (U87): induced apoptosis
